Test results taken from publication PMC9318133 (International Journal of Molecular Sciences, 2022).
Like-named read-outs stand apart in the source and are kept apart here.

Columns and labels:
mouse CB2 receptors [1] = biological target: T1, mouse CB2 receptors (Mus musculus, UniProt P47936); parameters: method as in PMID 27527584, PMID 25769232; settings: read-out: Mouse Spleen Membranes CB2 Ki; [3H]-CP-55,940 competition binding; mean ± SEM; data elaborated from ref [15],[33]; cited from earlier work
T1 construct: membranes from the mouse brain and spleen were used, respectively; from tissue; host or cells: mouse spleen membranes, CD-1 mice
T1 sequence (P47936 whole entry): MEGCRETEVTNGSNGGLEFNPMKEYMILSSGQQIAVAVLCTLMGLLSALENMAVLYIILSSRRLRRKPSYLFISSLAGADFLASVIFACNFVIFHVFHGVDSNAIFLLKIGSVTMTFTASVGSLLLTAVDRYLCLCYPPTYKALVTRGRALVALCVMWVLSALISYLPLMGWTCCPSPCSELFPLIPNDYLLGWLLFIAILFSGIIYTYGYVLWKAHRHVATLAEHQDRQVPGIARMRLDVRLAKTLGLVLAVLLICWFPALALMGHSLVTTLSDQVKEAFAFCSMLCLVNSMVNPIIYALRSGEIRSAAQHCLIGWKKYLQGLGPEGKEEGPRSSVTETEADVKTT

human CB2 receptors [2] = biological target: T2, human CB2 receptors (Homo sapiens, UniProt P34972); parameters: method as in PMID 27527584, PMID 25769232; settings: read-out: hCB2 CHO Cells IC50; cyclic AMP experiments; mean ± SEM; data elaborated from ref [15],[33]; cited from earlier work
T2 construct: host or cells: CHO cells
T2 sequence (P34972 whole entry): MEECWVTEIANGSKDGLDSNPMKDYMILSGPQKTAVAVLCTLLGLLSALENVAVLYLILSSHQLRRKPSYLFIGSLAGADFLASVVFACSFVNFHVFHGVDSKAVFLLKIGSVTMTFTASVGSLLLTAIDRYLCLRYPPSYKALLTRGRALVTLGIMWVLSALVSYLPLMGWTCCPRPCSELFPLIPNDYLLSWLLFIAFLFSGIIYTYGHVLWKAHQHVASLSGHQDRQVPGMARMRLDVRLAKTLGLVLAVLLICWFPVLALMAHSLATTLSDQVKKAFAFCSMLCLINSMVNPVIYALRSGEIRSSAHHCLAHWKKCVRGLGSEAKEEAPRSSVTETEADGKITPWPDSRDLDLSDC

CD-1 mice [3] = test system: CD-1 mice; parameters: method as in PMID 25769232, PMID 25987201; settings: ED50 + SEM, data elaborated from ref [33],[34]; cited from earlier work
CD-1 mice [4] = test system: CD-1 mice; parameters: method as in PMID 25769232, PMID 25987201; settings: ED50 + SEM, data elaborated from ref [33],[34]; cited from earlier work; remark: listed apart in the source
CD-1 mice [5] = test system: CD-1 mice; parameters: method as in PMID 25769232, PMID 25987201; settings: ED50 + SEM, data elaborated from ref [33],[34]; cited from earlier work; remark: listed apart in the source
CD-1 mice [6] = test system: CD-1 mice; parameters: method as in PMID 25769232, PMID 25987201; settings: ED50 + SEM, data elaborated from ref [33],[34]; cited from earlier work; remark: listed apart in the source
mouse CB1 receptors = biological target: T3, mouse CB1 receptors (Mus musculus, UniProt P47746); experiment: [3H]-CP-55,940 competition binding, mouse brain (cortex) membranes
T3 construct: membranes from the mouse brain and spleen were used, respectively; from tissue
T3 sequence (P47746 whole entry): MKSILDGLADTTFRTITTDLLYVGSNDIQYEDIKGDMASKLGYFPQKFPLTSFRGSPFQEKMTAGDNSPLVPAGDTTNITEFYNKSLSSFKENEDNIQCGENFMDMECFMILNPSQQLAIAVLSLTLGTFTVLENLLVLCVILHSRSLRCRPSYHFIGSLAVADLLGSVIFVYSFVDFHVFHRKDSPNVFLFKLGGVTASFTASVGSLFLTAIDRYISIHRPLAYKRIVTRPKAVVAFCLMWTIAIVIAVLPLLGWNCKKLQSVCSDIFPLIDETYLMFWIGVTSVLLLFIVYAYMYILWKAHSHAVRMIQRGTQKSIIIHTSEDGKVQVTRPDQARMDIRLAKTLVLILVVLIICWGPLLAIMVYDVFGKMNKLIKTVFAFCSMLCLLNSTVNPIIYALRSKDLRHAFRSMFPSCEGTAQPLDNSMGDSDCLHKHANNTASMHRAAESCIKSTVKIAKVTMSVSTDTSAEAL
Protocol: (§1) Following excision from mice, tissues were suspended in 50 mM Tris HCl, pH 7.4, at 4 °C. The mouse brain and spleen tissues were homogenized with a Polytron and subsequently centrifuged for 10 min at 2000× g. The resulting supernatants were filtered and centrifuged for 20 min at 40,000× g, and the pellets were used for competition binding experiments.
(§2) Competition binding experiments were carried out by incubating 0.5 nM [3H]-CP-55,940 (Perkin Elmer Life and Analytical Sciences, Waltham, MA, USA) and different concentrations of the tested compounds for 90 or 60 min at 30 °C for CB1 or CB2 receptors, respectively. […] Non-specific binding was determined in the presence of 1 μM WIN 55,212-2 [92]. Bound and free radioactivity were separated by filtering the assay mixture through Whatman GF/C glass fiber filters using a Brandel cell harvester (Brandel Instruments, Unterföhring, Germany). The filter-bound radioactivity was counted using a Packard Tri Carb 2810 TR scintillation counter (Perkin Elmer Life and Analytical Sciences, Waltham, MA, USA).
(§3) The protein concentration was determined according to a Bio-Rad method with bovine serum albumin as a reference standard. Inhibitory binding constants, Ki, were calculated from the IC50 values according to the Cheng and Prusoff equation:Ki = IC50/(1 + [C*]/KD*) where [C*] is the concentration of the radioligand and KD* its dissociation constant. […]

mouse CB2 receptors [7] = biological target: T1, mouse CB2 receptors; experiment: [3H]-CP-55,940 competition binding, mouse spleen membranes
Protocol: as §1, §2, §3

human CB1 receptors = biological target: T4, human CB1 receptors (Homo sapiens, UniProt P21554); experiment: Cyclic AMP assay (forskolin-stimulated) in CHO cells transfected with human CB1 receptors; assay type: cell-based
T4 construct: host or cells: CHO cells
T4 sequence (P21554 whole entry): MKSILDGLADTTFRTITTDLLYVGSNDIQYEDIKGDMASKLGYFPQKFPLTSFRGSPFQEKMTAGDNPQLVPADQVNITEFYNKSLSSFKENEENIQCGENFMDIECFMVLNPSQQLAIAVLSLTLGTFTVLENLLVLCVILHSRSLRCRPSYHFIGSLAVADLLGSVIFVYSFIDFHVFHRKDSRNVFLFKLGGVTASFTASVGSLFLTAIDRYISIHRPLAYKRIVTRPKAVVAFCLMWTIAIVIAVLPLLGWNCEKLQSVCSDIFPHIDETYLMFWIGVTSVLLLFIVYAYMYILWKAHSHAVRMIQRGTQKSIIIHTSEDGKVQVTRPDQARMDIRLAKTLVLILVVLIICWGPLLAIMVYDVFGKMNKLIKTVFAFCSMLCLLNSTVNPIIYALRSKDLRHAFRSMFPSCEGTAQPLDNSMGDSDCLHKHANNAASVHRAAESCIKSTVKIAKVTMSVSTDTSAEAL
Protocol: Chinese hamster ovarian (CHO) cells transfected with human CB1 or CB2 receptors (Perkin Elmer Life and Analytical Sciences, Melville, NY, USA) were grown adherently and maintained in Ham’s F12 containing 10% fetal bovine serum, penicillin (100 U/mL), streptomycin (100 µg/mL), and Geneticin (G418, 0.4 mg/mL) at 37 °C in 5% CO2/95% air. To obtain membranes, cells were washed with phosphate-buffered saline (PBS) and scraped off with ice-cold hypotonic buffer (5 mM Tris HCl, 2 mM EDTA, pH 7.4). The cell suspension was homogenized with a Polytron and then centrifuged for 30 min at 40,000× g. […]
The protein concentration was determined according to a Bio-Rad method with bovine serum albumin as a reference standard. Inhibitory binding constants, Ki, were calculated from the IC50 values according to the Cheng and Prusoff equation:Ki = IC50/(1 + [C*]/KD*) where [C*] is the concentration of the radioligand and KD* its dissociation constant. Functional experiments were analyzed by non-linear regression analysis using the equation for a sigmoid concentration–response curve (GraphPad Prism, San Diego, CA, USA). All the data are expressed as the mean ± SEM of three independent experiments.

human CB2 receptors [8] = biological target: T2, human CB2 receptors; experiment: Cyclic AMP assay (forskolin-stimulated) in CHO cells transfected with human CB2 receptors; assay type: cell-based
Protocol: CHO cells transfected with human CB1 or CB2 receptors were washed with PBS, detached with trypsin, and centrifuged for 10 min at 200× g.

CD-1 mice [9] = experiment: Visual placing response test; assay type: in vivo, mouse
CD-1 mice [10] = experiment: Acoustic response (startle reflex) test; assay type: in vivo, mouse
CD-1 mice [11] = experiment: Breath rate evaluation; assay type: in vivo, mouse
CD-1 mice [12] = experiment: Core (rectal) temperature evaluation; assay type: in vivo, mouse
CD-1 mice [13] = experiment: Drag test (number of steps); assay type: in vivo, mouse
[14] = 0.01–30 mg/kg i.p., monitored over 5 h
[15] = Mus musculus, ip, mice, ED50 + SEM

In the case of CCCCCn1cc(C(=O)c2cccc3ccccc23)c2ccccc21 [JWH-018, 1-naphthalenyl(1-pentyl-1H-indol-3-yl)-methanone], the Ki (mouse CB2 receptors [1]) is given as 7.13 ± 0.53 nM, the IC50 (human CB2 receptors [2]) is given as 11.6 ± 0.97 nM and the “ED50 Startle Reflex” value (CD-1 mice [3]) is given as 0.53 ± 0.05 mg/kg. The “ED50 Core Temperature” value (CD-1 mice [4]) was 1.7 ± 0.04 mg/kg, the “ED50 Tail Pinch” value (CD-1 mice [5]) was 1.8 ± 0.11 mg/kg and the “ED50 Drag Test” value (CD-1 mice [6]) was 2.4 ± 0.12 mg/kg.

With CCCCCn1cc(Cc2cccc3ccccc23)c2ccccc21 [JWH-175, 3-(1-naphthalenylmethyl)-1-pentyl-1H-indole] the Ki (mouse CB1 receptors) was 33.6 ± 2.4 nM, the Ki (mouse CB2 receptors [7]) was 487 ± 39 nM and the IC50 (human CB1 receptors) was 72 ± 5 nM. The IC50 (human CB2 receptors [8]) was 864 ± 61 nM, the “effect on visual placing response” value (CD-1 mice [9]; [14]) was “dose-dependently reduced the visual placing response” and the ED50 (CD-1 mice [9]; [15]) was 5.2 ± 0.08 mg/kg. For the same compound, the “lowest dose tested with significant inhibitory effect on visual placing response” value (CD-1 mice [9]; i.p.) was 0.01 mg/kg, the “effect on acoustic response” value (CD-1 mice [10]; [14]) was “dose-dependently reduced” and the ED50 (CD-1 mice [10]; [15]) was 4 ± 0.03 mg/kg. For the same compound, the “effect on breath rate” value (CD-1 mice [11]; [14]) was “dose-dependently reduced the breath rate”, the ED50 (CD-1 mice [11]; [15]) was 1.7 ± 0.15 mg/kg and the “dose at which inhibitory effect on breath rate was significant” value (CD-1 mice [11]; i.p., after 120 min, persisted up to 5 h) was 0.1 mg/kg. The “effect on core temperature” value (CD-1 mice [12]; [14]) was “reduced”, the ED50 (CD-1 mice [12]; [15]) was 5.6 ± 0.04 mg/kg and the “effect on motor activity in the drag test at low dose” value (CD-1 mice [13]; 0.1 mg/kg i.p., lasted up to 280 min) was “facilitated”. The “effect on motor activity in the drag test at higher doses” value (CD-1 mice [13]; 6–30 mg/kg i.p.) was “inhibited” and the ED50 (CD-1 mice [13]; Mus musculus, ip, mice, ED50 + SEM, calculated on inhibitory effect of the highest doses) was 10.9 ± 0.12 mg/kg.
